Measured values taken from ChEMBL document CHEMBL5257035, “Nucleoside Derived Antibiotics to Fight Microbial Drug Resistance: New Utilities for an Established Class of Drugs?” (J Med Chem, 2016).
In brackets after ≈: the same amount, converted by molar mass.

Tests used:
[1] = biological target: T1, Phospho-N-acetylmuramoyl-pentapeptide-transferase (Escherichia coli, UniProt E2QF15); experiment: Inhibition of MraY in Escherichia coli
T1 sequence (E2QF15 whole entry): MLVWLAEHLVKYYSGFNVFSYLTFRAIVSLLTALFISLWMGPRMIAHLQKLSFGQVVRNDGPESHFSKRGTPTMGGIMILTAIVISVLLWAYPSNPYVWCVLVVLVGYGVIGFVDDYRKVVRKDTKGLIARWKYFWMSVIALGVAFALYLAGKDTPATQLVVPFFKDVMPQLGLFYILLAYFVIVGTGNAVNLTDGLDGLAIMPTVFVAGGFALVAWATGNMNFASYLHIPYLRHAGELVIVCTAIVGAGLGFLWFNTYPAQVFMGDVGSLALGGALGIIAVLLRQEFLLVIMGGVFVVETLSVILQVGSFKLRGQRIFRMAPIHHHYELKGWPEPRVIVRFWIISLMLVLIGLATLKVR

[2] = biological target: T2, Phospho-N-acetylmuramoyl-pentapeptide-transferase (Escherichia coli K-12, UniProt P0A6W3); experiment: Inhibition of MraY in Escherichia coli K12
T2 sequence (P0A6W3 whole entry): T1 sequence (E2QF15 whole entry)

[3] = tested on: Bacillus subtilis; experiment: Antibacterial activity against Bacillus subtilis ATCC 6633 assessed as bacterial growth inhibition by agar diffusion method; type: functional
[4] = Toxicity in rat; settings: in vivo
[5] = Inhibition of Bacterial MraY; design: species or system Bacteria

SMILES	IC50 [1]	MIC [3]	LD50 [4]	other results
NC[C@H]1O[C@@H](O[C@@H](Cn2cc(Cc3ccc(COc4ccc(C(=O)c5ccccc5)cc4)cc3)nn2)[C@H]2O[C@@H](n3ccc(=O)[nH]c3=O)[C@H](O)[C@@H]2O)[C@H](O)[C@@H]1O	8 µM	–	–	–
NC[C@H]1O[C@@H](OC[C@H]2O[C@@H](n3ccc(=O)[nH]c3=O)C[C@@H]2O)[C@H](O)[C@@H]1O	–	–	–	IC50 [2]: 10 µM
CSCC[C@H](NC(=O)N[C@@H](Cc1c[nH]c2ccccc12)C(=O)O)C(=O)N[C@@H](CN(C)C(=O)[C@@H](N)Cc1cccc(O)c1)C(=O)N/C=C1/C[C@@H](O)[C@H](n2ccc(=O)[nH]c2=O)O1	–	12.5 µg/mL (≈ 14.7 µM)	–	–
N=C(N)NC[C@H]1O[C@@H](OC[C@H]2O[C@@H](n3ccc(=O)[nH]c3=O)[C@H](O)[C@@H]2O)[C@H](O)[C@@H]1O	25 µM	–	–	–
CC(=O)N[C@H]1[C@H](O[C@@H]2O[C@H](C[C@@H](C)[C@H]3O[C@@H](n4ccc(=O)[nH]c4=O)[C@H](O)[C@@H]3O)[C@H](O)[C@H](O)[C@H]2NC(=O)CCCCCCCCCCCCCCC(C)C)O[C@@H](CO)[C@H](O)[C@@H]1O	–	0.1 µg/mL (≈ 0.115 µM)	137 µg/kg	–
N=CNC[C@H]1O[C@@H](OC[C@H]2O[C@@H](n3ccc(=O)[nH]c3=O)[C@H](O)[C@@H]2O)[C@H](O)[C@@H]1O	25 µM	–	–	–
CC(=O)N[C@H]1[C@H](O[C@@H]2O[C@H](C[C@@H](C)[C@H]3O[C@@H](n4ccc(=O)[nH]c4=O)[C@H](O)[C@@H]3O)[C@H](O)[C@H](O)[C@H]2NC(=O)CC(O)CCCCCCCCCCC(C)C)O[C@@H](CO)[C@H](O)[C@@H]1O (stereo not given in full)	–	0.1 µg/mL (≈ 0.116 µM)	137 µg/kg	–
NC[C@H]1O[C@@H](O[C@@H](Cc2cn(Cc3ccc(COc4ccc(C(=O)c5ccccc5)cc4)cc3)nn2)[C@H]2O[C@@H](n3ccc(=O)[nH]c3=O)[C@H](O)[C@@H]2O)[C@H](O)[C@@H]1O	8 µM	–	–	–
CO[C@H]1[C@@H](OC)[C@H](n2ccc(=O)[nH]c2=O)O[C@@H]1[C@@H](O[C@@H]1OC(C(=O)NCCSSCCNC(C)=O)=C[C@@H](O)[C@H]1O)C(N)=O	0.01 µM	–	–	–
CO[C@H]1[C@H](O[C@@H](C2C(=O)N(Cc3ccccc3)C(=O)N2CCCNC(=O)[C@@H](NC(=O)[C@@H](NC(=O)N[C@H](C(=O)O)C(C)C)[C@@H]2CCNC(=N)N2)[C@@H](O)C(C)C)[C@H]2O[C@@H](n3ccc(=O)[nH]c3=O)[C@H](O)[C@@H]2O)O[C@H](CN)[C@H]1O (stereo not given in full)	–	–	–	IC50 [5]: 6.25 µM
NC[C@H]1O[C@@H](O[C@@H](Cc2cn(CCCCCCCCCCOc3ccc(C(=O)c4ccccc4)cc3)nn2)[C@H]2O[C@@H](n3ccc(=O)[nH]c3=O)[C@H](O)[C@@H]2O)[C@H](O)[C@@H]1O	8 µM	–	–	–
CCC(C)CCCCCCCCCCCCC(=O)N[C@H]1[C@H](O[C@@H]2O[C@@H](CO)[C@H](O)[C@H](O)[C@H]2NC(C)=O)O[C@H](C[C@@H](C)[C@H]2O[C@@H](n3ccc(=O)[nH]c3=O)[C@H](O)[C@@H]2O)[C@H](O)[C@@H]1O (stereo not given in full)	–	0.1 µg/mL (≈ 0.116 µM)	137 µg/kg	–
CCC(C)CCCCCCCCCC/C=C/C(=O)N[C@H]1[C@H](O[C@@H]2O[C@@H](CO)[C@H](O)[C@H](O)[C@H]2NC(C)=O)O[C@H](C[C@@H](C)[C@H]2O[C@@H](n3ccc(=O)[nH]c3=O)[C@H](O)[C@@H]2O)[C@H](O)[C@@H]1O (stereo not given in full)	–	0.1 µg/mL (≈ 0.117 µM)	137 µg/kg	–
CNC[C@H]1O[C@@H](OC[C@H]2O[C@@H](n3ccc(=O)[nH]c3=O)[C@H](O)[C@@H]2O)[C@H](O)[C@@H]1O	25 µM	–	–	–
CC(=O)N[C@H]1[C@H](O[C@@H]2O[C@H](C[C@@H](C)[C@H]3O[C@@H](n4ccc(=O)[nH]c4=O)[C@H](O)[C@@H]3O)[C@H](O)[C@H](O)[C@H]2NC(=O)CC(O)CCCCCCCCCCCCC(C)C)O[C@@H](CO)[C@H](O)[C@@H]1O (stereo not given in full)	–	0.1 µg/mL (≈ 0.112 µM)	137 µg/kg	–
CC(=O)N[C@H]1[C@H](O[C@@H]2O[C@H](C[C@@H](C)[C@H]3O[C@@H](n4ccc(=O)[nH]c4=O)[C@H](O)[C@@H]3O)[C@H](O)[C@H](O)[C@H]2NC(=O)/C=C/CCCCCCCCCCCCC(C)C)O[C@@H](CO)[C@H](O)[C@@H]1O	–	0.1 µg/mL (≈ 0.115 µM)	137 µg/kg	–
CCC(C)CCCCCCCCCCCC/C=C/C(=O)N[C@H]1[C@H](O[C@@H]2O[C@@H](CO)[C@H](O)[C@H](O)[C@H]2NC(C)=O)O[C@H](C[C@@H](C)[C@H]2O[C@@H](n3ccc(=O)[nH]c3=O)[C@H](O)[C@@H]2O)[C@H](O)[C@@H]1O (stereo not given in full)	–	0.1 µg/mL (≈ 0.113 µM)	137 µg/kg	–
CC(=O)N[C@H]1[C@H](O[C@@H]2O[C@H](C[C@@H](C)[C@H]3O[C@@H](n4ccc(=O)[nH]c4=O)[C@H](O)[C@@H]3O)[C@H](O)[C@H](O)[C@H]2NC(=O)CCCCCCCCCCCCC(C)C)O[C@@H](CO)[C@H](O)[C@@H]1O	–	0.1 µg/mL (≈ 0.118 µM)	137 µg/kg	–
CCCCCCCCCCCCN1C(=O)C([C@H](O[C@@H]2O[C@H](CN)[C@@H](O)[C@H]2OC)[C@H]2O[C@@H](n3ccc(=O)[nH]c3=O)[C@H](O)[C@@H]2O)N(CCCNC(=O)[C@@H](NC(=O)[C@@H](NC(=O)N[C@H](C(=O)O)C(C)C)[C@@H]2CCNC(=N)N2)[C@@H](O)C(C)C)C1=O (stereo not given in full)	–	–	–	IC50 [5]: 6.25 µM
CCC(C)CCCCCCCCCCCCCCC(=O)N[C@H]1[C@H](O[C@@H]2O[C@@H](CO)[C@H](O)[C@H](O)[C@H]2NC(C)=O)O[C@H](C[C@@H](C)[C@H]2O[C@@H](n3ccc(=O)[nH]c3=O)[C@H](O)[C@@H]2O)[C@H](O)[C@@H]1O (stereo not given in full)	–	0.1 µg/mL (≈ 0.113 µM)	137 µg/kg	–
CO[C@H]1[C@@H](O)[C@H](n2ccc(=O)[nH]c2=O)O[C@@H]1C(OC1OC(C(=O)Nc2ccc(C(O)C(O)C(=O)N/C=C/C(=O)NCC(=O)O)cc2)=CC(O)C1O)C(N)=O (stereo not given in full)	–	–	–	IC50 [5]: 0.011 µM
CC(=O)N[C@H]1[C@H](O[C@@H]2O[C@H](C[C@@H](C)[C@H]3O[C@@H](n4ccc(=O)[nH]c4=O)[C@H](O)[C@@H]3O)[C@H](O)[C@H](O)[C@H]2NC(=O)/C=C/CCCCCCCCCCC(C)C)O[C@@H](CO)[C@H](O)[C@@H]1O	–	0.1 µg/mL (≈ 0.119 µM)	137 µg/kg	–
CC(=O)N[C@H]1[C@H](O[C@@H]2O[C@H](C[C@@H](C)[C@H]3O[C@@H](n4ccc(=O)[nH]c4=O)[C@H](O)[C@@H]3O)[C@H](O)[C@H](O)[C@H]2NC(=O)/C=C/CCCCCCCCCCCC(C)C)O[C@@H](CO)[C@H](O)[C@@H]1O	–	0.1 µg/mL (≈ 0.117 µM)	137 µg/kg	–
CO[C@H]1[C@@H](O)[C@H](n2ccc(=O)[nH]c2=O)O[C@@H]1[C@@H](O[C@@H]1OC(C(=O)N[C@H]2CSC[C@@H](C)NC2=O)=C[C@@H](O)[C@H]1O)C(N)=O	0.058 µM	–	–	–
CC(C)[C@H](NC(=O)N[C@H](C(=O)N[C@H](C(=O)NCCCN[C@@H](CC[C@H]1O[C@@H](n2ccc(=O)[nH]c2=O)[C@H](O)[C@@H]1O)C(=O)O)[C@@H](O)C(C)C)[C@@H]1CCNC(=N)N1)C(=O)O	1.7 µM	–	–	IC50 [5]: 150 µM
CCCCCCCCCCc1cn(C[C@H](O[C@@H]2O[C@H](CN)[C@@H](O)[C@H]2O)[C@H]2O[C@@H](n3ccc(=O)[nH]c3=O)[C@H](O)[C@@H]2O)nn1	8 µM	–	–	–
NC[C@H]1O[C@@H](O[C@@H](Cn2cc(CCCCCCCCCCc3ccccc3)nn2)[C@H]2O[C@@H](n3ccc(=O)[nH]c3=O)[C@H](O)[C@@H]2O)[C@H](O)[C@@H]1O	8 µM	–	–	–
NC[C@H]1O[C@@H](O[C@@H](CO)[C@H]2O[C@@H](n3ccc(=O)[nH]c3=O)[C@H](O)[C@@H]2O)[C@H](O)[C@@H]1O	–	–	–	IC50 [5]: 5 µM
